# Assay results from article PMC6156383 (Frontiers in Psychiatry, 2018).
# “And” between values parts separate entries of the source, which are not always exact repeats. Identical values can stand only once. Counter-ions that a name gives are not always drawn.
# How the values were obtained:
# [1] = target: T1, KOP receptor (Homo sapiens, UniProt P41145); assay type: binding
# T1 construct: expressed in transfected cells
# [2] = target: T1, KOP receptor; assay type: biochemical
# [3] = target: T2, MOP receptor (Homo sapiens, UniProt P35372); assay type: biochemical
# T2 construct: expressed in transfected cells
# T2 sequence (P35372 whole entry): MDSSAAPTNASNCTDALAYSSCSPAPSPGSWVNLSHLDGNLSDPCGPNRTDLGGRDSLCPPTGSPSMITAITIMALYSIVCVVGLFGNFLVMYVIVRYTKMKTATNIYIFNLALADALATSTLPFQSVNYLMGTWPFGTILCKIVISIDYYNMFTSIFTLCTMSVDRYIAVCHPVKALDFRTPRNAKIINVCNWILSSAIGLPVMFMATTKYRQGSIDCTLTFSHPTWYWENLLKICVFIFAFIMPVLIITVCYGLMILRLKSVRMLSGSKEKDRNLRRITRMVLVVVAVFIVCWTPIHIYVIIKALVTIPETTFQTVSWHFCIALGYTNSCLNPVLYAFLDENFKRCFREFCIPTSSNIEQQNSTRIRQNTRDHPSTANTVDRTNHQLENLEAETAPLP
# [4] = target: T2, MOP receptor; assay type: binding
# [5] = target: T3, NOP receptor (Homo sapiens, UniProt P41146); assay: [35S]GTPγS binding stimulation (agonist), CHO membranes; assay type: biochemical; conditions: for NOP % stim: [35S]GTPγS stimulation relative to standard agonist N/OFQ; for EC50: [35S]GTPγS stimulation, average ± SD
# T3 construct: expressed in transfected cells
# T3 sequence (P41146 whole entry): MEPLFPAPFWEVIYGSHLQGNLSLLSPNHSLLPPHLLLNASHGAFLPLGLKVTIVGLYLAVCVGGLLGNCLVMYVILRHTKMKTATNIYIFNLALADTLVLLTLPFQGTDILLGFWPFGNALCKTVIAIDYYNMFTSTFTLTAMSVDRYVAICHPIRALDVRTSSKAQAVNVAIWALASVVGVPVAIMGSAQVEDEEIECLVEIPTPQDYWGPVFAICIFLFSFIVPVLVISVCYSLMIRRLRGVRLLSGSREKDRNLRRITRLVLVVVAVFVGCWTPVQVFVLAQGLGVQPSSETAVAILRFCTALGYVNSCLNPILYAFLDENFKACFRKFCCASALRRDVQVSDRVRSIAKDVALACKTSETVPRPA
# [6] = target: T4, DOP receptor (Homo sapiens, UniProt P41143); assay type: binding
# T4 construct: expressed in transfected cells
# T4 sequence (P41143 whole entry): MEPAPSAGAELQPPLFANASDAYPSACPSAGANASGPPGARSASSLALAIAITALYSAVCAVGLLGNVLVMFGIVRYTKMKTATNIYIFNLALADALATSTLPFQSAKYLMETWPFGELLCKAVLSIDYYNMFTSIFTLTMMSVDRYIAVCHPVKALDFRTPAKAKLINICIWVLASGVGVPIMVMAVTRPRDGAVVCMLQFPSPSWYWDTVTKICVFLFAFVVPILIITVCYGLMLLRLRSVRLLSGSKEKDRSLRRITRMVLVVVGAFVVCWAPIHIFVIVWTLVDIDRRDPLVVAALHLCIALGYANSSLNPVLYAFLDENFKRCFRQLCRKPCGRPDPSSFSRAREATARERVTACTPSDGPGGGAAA
# [7] = target: T4, DOP receptor; assay: [35S]GTPγS binding stimulation (agonist), CHO membranes; assay type: biochemical; conditions: for DOP % stim: [35S]GTPγS stimulation relative to standard agonist DPDPE; for EC50: [35S]GTPγS stimulation, * = too little stimulation (if < 15% an EC50 was not always determined)
# [8] = target: T3, NOP receptor; assay type: binding
# [9] = test system: CD1 mice; assay: Mouse tail flick assay (radiant heat, acute thermal nociception); assay type: in vivo
# [10] = target: T3, NOP receptor; assay: [35S]GTPγS antagonist assay versus N/OFQ; assay type: biochemical
# [11] = target: T4, DOP receptor; assay: [35S]GTPγS antagonist assay versus DPDPE; assay type: biochemical
# [12] = target: T2, MOP receptor; assay: [35S]GTPγS antagonist assay and Schild analysis versus DAMGO; assay type: biochemical; conditions: for Type of antagonism at MOP: Schild analysis; for MOP pA2 / MOP Ke: antagonist activity in [35S]GTPγS assay, Schild analysis versus DAMGO; for MOP Ke: unit not given
# [13] = target: T1, KOP receptor; assay: [35S]GTPγS antagonist assay versus U69593; assay type: biochemical
# T1 sequence (P41145 whole entry): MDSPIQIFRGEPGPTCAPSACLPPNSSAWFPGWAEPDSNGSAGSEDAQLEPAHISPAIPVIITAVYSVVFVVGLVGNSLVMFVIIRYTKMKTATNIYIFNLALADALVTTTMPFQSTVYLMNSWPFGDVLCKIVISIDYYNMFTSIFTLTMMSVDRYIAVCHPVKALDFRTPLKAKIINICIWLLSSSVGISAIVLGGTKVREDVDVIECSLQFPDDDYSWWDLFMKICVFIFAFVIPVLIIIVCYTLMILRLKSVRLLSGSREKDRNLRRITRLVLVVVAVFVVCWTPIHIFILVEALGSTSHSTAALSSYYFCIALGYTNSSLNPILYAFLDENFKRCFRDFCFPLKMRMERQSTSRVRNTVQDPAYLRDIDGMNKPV
compound,measurement,setting,value
"O=C(Cc1ccccc1)O[C@@]12CCC(=O)[C@@H]3Oc4c(O)ccc5c4[C@@]31CCN(CC1CC1)[C@@H]2C5 [Compound 7a, 14β-phenylacetyl-17-cyclopropylmethyl-7,8-dihydronoroxymorphinone]",Ki,[1],1.14 ± 0.46 nM
same,EC50,[2],1.2 ± 0.6 nM
same,KOP % stim,[2],44.5 ± 13%
same,EC50,[3],3.8 ± 1.8 nM
same,MOP % stim,[3],31.6 ± 4.2%
same,Ki,[4],0.86 ± 0.18 nM
same,NOP % stim,[5],28.1 ± 4.8%
same,EC50,[5],401 ± 161 nM
same,Ki,[6],3.1 ± 0.6 nM
same,DOP % stim,[7],30.5 ± 5.5%
same,EC50,[7],5.6 ± 0.4 nM
same,Ki,[8],127 ± 17 nM
"Cc1ccc(CC(=O)O[C@@]23CCC(=O)[C@@H]4Oc5c(O)ccc6c5[C@@]42CCN(CC2CC2)[C@@H]3C6)cc1 [Compound 7b, 14β-(4′-methylphenylacetyl)-17-cyclopropylmethyl-7,8-dihydronoroxymorphinone]",Ki,[1],1.56 ± 0.28 nM
same,EC50,[2],6.3 ± 2.2 nM
same,KOP % stim,[2],11.5 ± 2.7%
same,EC50,[3],1.6 ± 0.9 nM
same,MOP % stim,[3],34.9 ± 2.0%
same,Ki,[4],1.87 ± 0.09 nM
same,NOP % stim,[5],22.3 ± 1.4%
same,EC50,[5],169 ± 3.4 nM
same,Ki,[6],1.7 ± 0.2 nM
same,DOP % stim,[7],27.0 ± 4.8%
same,EC50,[7],3.8 ± 1.1 nM
same,Ki,[8],36.3 ± 4.2 nM
"Cc1ccccc1CC(=O)O[C@@]12CCC(=O)[C@@H]3Oc4c(O)ccc5c4[C@@]31CCN(CC1CC1)[C@@H]2C5 [Compound 7c, 14β-(2′-methylphenylacetyl)-17-cyclopropylmethyl-7,8-dihydronoroxymorphinone]",Ki,[1],1.69 ± 1.2 nM
same,EC50,[2],2.9 ± 1.8 nM
same,KOP % stim,[2],86% and 86.3 ± 6.5%
same,EC50,[3],2.2 ± 0.2 nM
same,MOP % stim,[3],41.9 ± 1.4%
same,Ki,[4],3.59 ± 0.86 nM
same,NOP % stim,[5],21.1 ± 1.4%
same,EC50,[5],106 ± 32.2 nM
same,Ki,[6],1.97 ± 0.19 nM
same,DOP % stim,[7],12.6 ± 3.1%
same,EC50,[7],201 ± 59 nM
same,Ki,[8],44.1 ± 3.1 nM
"Cc1cccc(CC(=O)O[C@@]23CCC(=O)[C@@H]4Oc5c(O)ccc6c5[C@@]42CCN(CC2CC2)[C@@H]3C6)c1 [Compound 7d, 14β-(3′-methylphenylacetyl)-17-cyclopropylmethyl-7,8-dihydronoroxymorphinone]",Ki,[1],2.8 ± 0.91 nM
same,EC50,[2],1 ± 0.3 nM
same,KOP % stim,[2],46.4 ± 3.6%
same,EC50,[3],5.2 ± 2 nM
same,MOP % stim,[3],40.1 ± 4.4%
same,Ki,[4],1.91 ± 0.51 nM
same,NOP % stim,[5],59.3 ± 2.4%
same,EC50,[5],855 ± 185 nM
same,Ki,[6],5.58 ± 0.22 nM
same,DOP % stim,[7],15.8 ± 0.1%
same,EC50,[7],21.3 ± 2.2 nM
same,Ki,[8],49.9 ± 3.5 nM
"COc1cccc(CC(=O)O[C@@]23CCC(=O)[C@@H]4Oc5c(O)ccc6c5[C@@]42CCN(CC2CC2)C3C6)c1 [Compound 7e, 14β-(3′-methoxyphenylacetyl)-17-cyclopropylmethyl-7,8-dihydronoroxymorphinone]",Ki,[1],1.44 ± 0.33 nM
same,EC50,[2],1.7 ± 0.4 nM
same,KOP % stim,[2],46.3 ± 8.1%
same,EC50,[3],13.3 ± 2.2 nM
same,MOP % stim,[3],11.3 ± 1.3%
same,Ki,[4],1.1 ± 0.08 nM
same,NOP % stim,[5],36.1 ± 0.3%
same,EC50,[5],374 ± 81.6 nM
same,Ki,[6],3.61 ± 0.34 nM
same,DOP % stim,[7],35.7 ± 0.7%
same,EC50,[7],9.9 ± 0.2 nM
same,Ki,[8],50.1 ± 2.7 nM
"COc1ccc(CC(=O)O[C@@]23CCC(=O)[C@@H]4Oc5c(O)ccc6c5[C@@]42CCN(CC2CC2)[C@@H]3C6)cc1 [Compound 7f, 14β-(4′-methoxyphenylacetyl)-17-cyclopropylmethyl-7,8-dihydronoroxymorphinone]",Ki,[1],1.9 ± 0.42 nM
same,KOP % stim,[2],6.5 ± 3.3%
same,MOP % stim,[3],7.8 ± 3.5%
same,Tail flick latency versus vehicle controls,[9]; 1 mg/kg s.c.,significant increase in tail flick latency compared to vehicle controls at the 60- and 120-min time points
same,"Effect on morphine-induced antinociception, tail flick","[9]; 1 mg/kg s.c. given 10 min before morphine, P < 0.05",morphine-induced antinociception was attenuated at the 30- and 60-min time points
same,"Antinociception versus vehicle controls, tail flick",[9]; 3.0 mg/kg s.c.,significant antinociception at the 30- and 120-min time points
same,"Antinociception (%MPE), tail flick","[9]; 1 and 3 mg/kg s.c., 30, 60, 120 min",low levels of antinociception
same,Type of inhibition at NOP,[10]; [35S]GTPγS antagonist assay,non-competitive
same,IC50,"[10]; [35S]GTPγS, in the presence of 100 nM N/OFQ",5640 nM
same,Type of inhibition at DOP,[11]; [35S]GTPγS antagonist assay,non-competitive
same,IC50,"[11]; [35S]GTPγS, in the presence of 1 μM DPDPE",48.1 ± 14.1 nM
same,Type of antagonism at MOP,[12],very potent competitive antagonists
same,MOP pA2,[12],10.58 ± 0.13 and 10.58 ± 0.14
same,MOP Ke,[12],0.026 ± 0.008
same,IC50,"[12]; in the presence of 1 μM DAMGO, read-out: IC50 inhibiting DAMGO stimulation of [35S]GTPγS binding, MOP",12.4 ± 2.25 nM
same,Ki,[4],1.08 ± 0.33 nM
same,NOP % stim,[5],8.9 ± 1.0%
same,EC50,[5],61.8 ± 20.1 nM
same,Type of inhibition at KOP,[13]; [35S]GTPγS antagonist assay,non-competitive
same,IC50,"[13]; [35S]GTPγS, in the presence of 1 μM U69593",12.2 ± 0.11 nM
same,Ki,[6],2.56 ± 0.48 nM
same,DOP % stim,[7],18.4 ± 1.3%
same,EC50,[7],59.4 ± 19.6 nM
same,Ki,[8],49.8 ± 7.1 nM
"O=C(Cc1ccc2c(c1)OCO2)O[C@@]12CCC(=O)[C@@H]3Oc4c(O)ccc5c4[C@@]31CCN(CC1CC1)[C@@H]2C5 [Compound 7g, 14β-(3′,4′-dioxymethylenephenylacetyl)-17-cyclopropylmethyl-7,8-dihydronoroxymorphinone]",Ki,[1],1.2 ± 0.42 nM
same,EC50,[2],5.4 ± 0.1 nM
same,KOP % stim,[2],41.1 ± 0.9%
same,MOP % stim,[3],12.1 ± 3.7%
same,Type of antagonism at MOP,[12],very potent competitive antagonists
same,MOP pA2,[12],10.29 ± 0.24
same,MOP Ke,[12],0.051 ± 0.018
same,Ki,[4],0.99 ± 0.35 nM
same,NOP % stim,[5],43.5 ± 9.4%
same,EC50,[5],562 ± 67.5 nM
same,Ki,[6],1.25 ± 0.2 nM
same,Ki,[8],94.3 ± 28 nM
"COc1ccccc1CC(=O)O[C@@]12CCC(=O)[C@@H]3Oc4c(O)ccc5c4[C@@]31CCN(CC1CC1)[C@@H]2C5 [Compound 7h, 14β-(2′-methoxyphenylacetyl)-17-cyclopropylmethyl-7,8-dihydronoroxymorphinone]",Ki,[1],3.52 ± 0.9 nM
same,EC50,[2],1.6 ± 0.3 nM
same,KOP % stim,[2],50.4 ± 6.0%
same,EC50,[3],0.5 ± 0.1 nM
same,MOP % stim,[3],37.3 ± 0.7%
same,Ki,[4],3.77 ± 0.9 nM
same,NOP % stim,[5],40.8 ± 5.4%
same,EC50,[5],479 ± 33.3 nM
same,DOP % stim,[7],19.2 ± 4.9%
same,Ki,[8],62.3 ± 4.9 nM
"O=C(Cc1ccccc1F)O[C@@]12CCC(=O)[C@@H]3Oc4c(O)ccc5c4[C@@]31CCN(CC1CC1)[C@@H]2C5 [Compound 7i, 14β-(2′-fluorophenylacetyl)-17-cyclopropylmethyl-7,8-dihydronoroxymorphinone]",Ki,[1],4.55 ± 0.7 nM
same,EC50,[2],4 ± 2 nM
same,KOP % stim,[2],43.8 ± 4.7%
same,EC50,[3],2 ± 0.7 nM
same,MOP % stim,[3],27.9 ± 2.8%
same,Ki,[4],2.59 ± 1.1 nM
same,NOP % stim,[5],14.5 ± 2.9%
same,EC50,[5],94.1 ± 24.7 nM
same,Ki,[6],4.07 ± 0.91 nM
same,Ki,[8],69.7 ± 2.4 nM
"O=C(Cc1ccc(Cl)cc1)O[C@@]12CCC(=O)[C@@H]3Oc4c(O)ccc5c4[C@@]31CCN(CC1CC1)C2C5 [Compound 7j, 14β-(4′-chlorophenylacetyl)-17-cyclopropylmethyl-7,8-dihydronoroxymorphinone]",Ki,[1],3.95 ± 0.59 nM
same,EC50,[2],5.4 ± 1.3 nM
same,KOP % stim,[2],37.1 ± 0.2%
same,MOP % stim,[3],8.2 ± 7.2%
same,Type of antagonism at MOP,[12],non-competitive
same,MOP pA2,[12],Non-competitive
same,Ki,[4],1.78 ± 0.03 nM
same,NOP % stim,[5],18.9 ± 2.7%
same,EC50,[5],298 ± 18.6 nM
same,Ki,[6],4.95 ± 1.1 nM
same,DOP % stim,[7],37.2 ± 0.2%
same,Ki,[8],51.3 ± 14 nM
"O=C(Cc1ccccc1Cl)O[C@@]12CCC(=O)[C@@H]3Oc4c(O)ccc5c4[C@@]31CCN(CC1CC1)[C@@H]2C5 [Compound 7k, 14β-(2′-chlorophenylacetyl)-17-cyclopropylmethyl-7,8-dihydronoroxymorphinone]",Ki,[1],1.34 ± 0.5 nM
same,EC50,[2],13.9 ± 6.4 nM
same,KOP % stim,[2],31.3 ± 5.6%
same,EC50,[3],2.4 ± 0.6 nM
same,MOP % stim,[3],39.3 ± 4.7%
same,Ki,[4],4.66 ± 1.8 nM
same,NOP % stim,[5],49.9 ± 0.7%
same,EC50,[5],808 ± 45.8 nM
same,Ki,[6],3.24 ± 0.15 nM
same,Ki,[8],32.6 ± 2.3 nM
"CN1CC[C@]23c4c5ccc(O)c4O[C@H]2[C@@H](O)C=C[C@H]3[C@H]1C5 [morphine, Morphine hydrochloride, reference compound]","%MPE, tail flick, positive control","[9]; 3 mg/kg, 30, 60, 120 min",anticipated increase in %MPE at all time points
